Test results from ChEMBL document CHEMBL1201862, “PubChem BioAssay data set” (2004).
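In this assay, cells in 96-well plates receive the compound at five concentrations for 48 hours. Endpoints are linearly interpolated between the surrounding concentrations. GI50: concentration for 50% inhibition of growth.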 Activity calls are given as the source filed them. No stated cut-off is given here; in the data, active = GI50 up to about 1.1 µM and inactive = higher.

Columns and labels:
Assay in all cases: inhibition of tumour cell growth, NCI panel, 48 h
KM-20L2 = test system: KM-20L2
DLD-1 = test system: DLD-1
HOP-18 = test system: HOP-18
SNB-78 = test system: SNB-78
LXFL 529 = test system: LXFL 529
DMS-273 = test system: DMS-273
DMS-114 = test system: DMS-114
XF498 = test system: XF498
RXF 631 = test system: RXF 631

SMILES | GI50 (KM-20L2) | GI50 (DLD-1) | GI50 (HOP-18) | GI50 (SNB-78) | GI50 (LXFL 529) | GI50 (DMS-273) | GI50 (DMS-114) | GI50 (XF498) | GI50 (RXF 631)
O=C1c2ccccc2C(=O)c2c(NCCNCCO)ccc(O)c21 | 2.94 µM (inactive) | 3.33 µM (inactive) | 9.27 µM (inactive) | 4.61 µM (inactive) | 3.69 µM (inactive) | 2.22 µM (inactive) | 4.59 µM (inactive) | 4.89 µM (inactive) | –
C/C=C/C=C/[C@H]1Cc2cc(O)cc(O)c2O1 | 62.4 µM (inactive) | 82 µM (inactive) | > 100 µM (inactive) | > 100 µM (inactive) | 27.4 µM (inactive) | 28.9 µM (inactive) | 22.6 µM (inactive) | 46.5 µM (inactive) | 62.4 µM (inactive)
C=CCC(OCCOCC)c1cc(OCCOCC)ccc1OC (stereo not drawn) | – | – | – | > 100 µM (inactive) | > 100 µM (inactive) | > 100 µM (inactive) | – | > 100 µM (inactive) | –
O=C1N=C(Nc2ccccc2Cl)SC1C(=O)Nc1ccc([N+](=O)[O-])cc1[N+](=O)[O-] (stereo not drawn) | > 100 µM (inactive) | > 100 µM (inactive) | 22 µM (inactive) | > 100 µM (inactive) | > 100 µM (inactive) | > 100 µM (inactive) | 75.3 µM (inactive) | > 100 µM (inactive) | > 100 µM (inactive)
CCOc1ccc(NCC2CC/C(=C\c3ccccc3OC)C2=O)cc1 (stereo not drawn) | 14 µM (inactive) | 3.09 µM (inactive) | 15.3 µM (inactive) | 16.5 µM (inactive) | 2.56 µM (inactive) | 2.58 µM (inactive) | 9.71 µM (inactive) | – | 23.8 µM (inactive)
NCCOCn1cc(Cc2cccc(OCc3ccccc3)c2)c(=O)[nH]c1=O | > 100 µM (inactive) | > 100 µM (inactive) | > 100 µM (inactive) | > 100 µM (inactive) | > 100 µM (inactive) | 70 µM (inactive) | 77.1 µM (inactive) | – | –
Cc1cc(C)c(-n2c(-c3ccc(Br)cc3)cs/c2=N\N=C2C=C(C(C)(C)C)C(=O)C(C(C)(C)C)=C2)c(C)c1 | > 100 µM (inactive) | > 100 µM (inactive) | > 100 µM (inactive) | 38.7 µM (inactive) | > 100 µM (inactive) | > 100 µM (inactive) | > 100 µM (inactive) | 29.9 µM (inactive) | > 100 µM (inactive)
[O-][S+]1c2ccccc2N=C(c2cccc3ccccc23)CC1c1cccc2ccccc12 (stereo not drawn) | 36.3 µM (inactive) | 18.4 µM (inactive) | 12.2 µM (inactive) | 39 µM (inactive) | 17.5 µM (inactive) | 29.6 µM (inactive) | 16.5 µM (inactive) | 20.6 µM (inactive) | 36.4 µM (inactive)
O=C(/C=C/c1ccccc1)c1ccc(NCc2nc3ccccc3[nH]2)cc1 | 2.9 µM (inactive) | 4.27 µM (inactive) | 2.34 µM (inactive) | 4.9 µM (inactive) | 2.83 µM (inactive) | 4.5 µM (inactive) | 2.56 µM (inactive) | 7.6 µM (inactive) | –
COC(=O)/C(=N\Nc1nc(S)nn1N)C(C#N)c1ccccc1 (stereo not drawn) | > 100 µM (inactive) | > 100 µM (inactive) | > 100 µM (inactive) | > 100 µM (inactive) | > 100 µM (inactive) | – | – | – | –
O=C1C/C(=C/c2ccc(/C=C3/CC(=O)N(c4cccc(Br)c4)C3=O)cc2)C(=O)N1c1cccc(Br)c1 | > 100 µM (inactive) | > 100 µM (inactive) | > 100 µM (inactive) | 36.2 µM (inactive) | > 100 µM (inactive) | > 100 µM (inactive) | > 100 µM (inactive) | 26.5 µM (inactive) | –
O=C(O)c1ccccc1[Se][Se]c1ccccc1C(=O)O | 25.8 µM (inactive) | > 100 µM (inactive) | 23.2 µM (inactive) | – | – | 66.1 µM (inactive) | 32.3 µM (inactive) | 70 µM (inactive) | 28.4 µM (inactive)
O=C1C=CC2(C=C1)C[C@H](NC(=O)OCc1ccccc1)C(=O)O2 | 19 µM (inactive) | 5.53 µM (inactive) | 16.7 µM (inactive) | 24.5 µM (inactive) | 12.1 µM (inactive) | 18.3 µM (inactive) | 20.3 µM (inactive) | 17.8 µM (inactive) | 19.6 µM (inactive)
N#Cc1c(-c2ccco2)cc(-c2ccc(NCc3nc4ccccc4[nH]3)cc2)nc1N | – | 28.8 µM (inactive) | 24.4 µM (inactive) | – | 17.9 µM (inactive) | 18 µM (inactive) | – | – | –
COc1cc(/C=C(\NC(=O)c2ccccc2)c2nc3c(O)nc(S)nc3[nH]2)cc(OC)c1OC | > 100 µM (inactive) | > 100 µM (inactive) | – | > 100 µM (inactive) | > 100 µM (inactive) | – | > 100 µM (inactive) | > 100 µM (inactive) | > 100 µM (inactive)
CCCC(Sc1ccccc1)P(=O)(c1ccccc1)c1ccccc1 (stereo not drawn) | > 100 µM (inactive) | 19.6 µM (inactive) | – | 37.6 µM (inactive) | – | 36.6 µM (inactive) | 34.8 µM (inactive) | – | 30.1 µM (inactive)
CCN(CC)CC(=O)/C=C/c1ccc(C)cc1 | 20.6 µM (inactive) | 25.1 µM (inactive) | 23.2 µM (inactive) | 51.8 µM (inactive) | 18.6 µM (inactive) | 22.2 µM (inactive) | 21.9 µM (inactive) | 31 µM (inactive) | –
CC(=O)OCCOCNC(=S)N/N=C(\C)c1ccco1 | > 100 µM (inactive) | > 100 µM (inactive) | > 100 µM (inactive) | > 100 µM (inactive) | > 100 µM (inactive) | > 100 µM (inactive) | > 100 µM (inactive) | – | > 100 µM (inactive)
Brc1ccc(C2SCc3nc4ccccc4n32)cc1 (stereo not drawn) | – | 10.5 µM (inactive) | 45.5 µM (inactive) | 6.32 µM (inactive) | 7.36 µM (inactive) | – | – | 11.8 µM (inactive) | –
COC(=O)c1nc(C(=O)OC)c2c([nH]c3ccccc32)c1C(=O)OC | – | 65.6 µM (inactive) | < 0.01 µM (active) | > 100 µM (inactive) | 74.5 µM (inactive) | 60 µM (inactive) | 49.3 µM (inactive) | 35.2 µM (inactive) | –
C1CN2CCO[SiH](O1)OCC2 | > 100 µM (inactive) | > 100 µM (inactive) | > 100 µM (inactive) | > 100 µM (inactive) | > 100 µM (inactive) | > 100 µM (inactive) | > 100 µM (inactive) | – | –
COC(=O)[C@@]1(C)C(=O)CC[C@@H]1C=O | > 100 µM (inactive) | > 100 µM (inactive) | – | > 100 µM (inactive) | > 100 µM (inactive) | – | > 100 µM (inactive) | > 100 µM (inactive) | –
[O-][S+]1Cc2ccccc2CS1 (stereo not drawn) | 25.3 µM (inactive) | 16.7 µM (inactive) | 33 µM (inactive) | 14.7 µM (inactive) | 15.1 µM (inactive) | 14.2 µM (inactive) | – | 17.9 µM (inactive) | 48.9 µM (inactive)
CC(C)CS(=O)(=O)/C(=C(\c1ccc(Br)cc1)S(=O)(=O)CC(C)C)c1ccc(Br)cc1 | > 100 µM (inactive) | > 100 µM (inactive) | > 100 µM (inactive) | 97.7 µM (inactive) | > 100 µM (inactive) | > 100 µM (inactive) | – | > 100 µM (inactive) | > 100 µM (inactive)
O=C1C2=C(c3ccccc31)C(c1ccc(Cl)cc1)N1C(=O)CCSC1=N2 (stereo not drawn) | > 100 µM (inactive) | > 100 µM (inactive) | – | – | 53.2 µM (inactive) | > 100 µM (inactive) | 67.6 µM (inactive) | 41.3 µM (inactive) | > 100 µM (inactive)
CCOC(=O)/C(I)=C/c1cc(OC)c(OC)c(OC)c1 | 3.21 µM (inactive) | 6.03 µM (inactive) | 11.6 µM (inactive) | 28.2 µM (inactive) | 10.4 µM (inactive) | 6.68 µM (inactive) | 2.92 µM (inactive) | 2.92 µM (inactive) | –
Cc1ccc(C)c(NC(=O)CC/C(=N\NC(=O)C(=O)NN)C(C)C(=O)c2ccc(O)cc2)c1 (stereo not drawn) | > 100 µM (inactive) | > 100 µM (inactive) | > 100 µM (inactive) | > 100 µM (inactive) | > 100 µM (inactive) | > 100 µM (inactive) | – | – | –
CC(=O)Nc1ccc(S(=O)(=O)Nc2cnc3ccccc3n2)cc1 | > 100 µM (inactive) | > 100 µM (inactive) | > 100 µM (inactive) | – | > 100 µM (inactive) | > 100 µM (inactive) | > 100 µM (inactive) | > 100 µM (inactive) | –
CCCCCC(/C=C/[C@@H]1[C@H]2CC(=O)O[C@H]2C[C@H]1N1CCOCC1)OC1CCCO1 (stereo partly drawn) | > 100 µM (inactive) | > 100 µM (inactive) | > 100 µM (inactive) | > 100 µM (inactive) | > 100 µM (inactive) | > 100 µM (inactive) | > 100 µM (inactive) | – | –
COc1ccc(/C=C2\CCC(CCN(C)C)(C3=CCCC3)C2=O)cc1Br (stereo not drawn) | 1.59 µM (inactive) | 5.13 µM (inactive) | 12.4 µM (inactive) | 9.02 µM (inactive) | 4.71 µM (inactive) | 3.78 µM (inactive) | 4.32 µM (inactive) | 3.24 µM (inactive) | 14.7 µM (inactive)
